Reference: US11219628B2, “Replacement of cytotoxic preconditioning before cellular immunotherapy” (priority 2017, dated 2022)
Entries after “also recorded” stand apart in the source; their conditions may differ. Like-named read-outs stand apart in the source and are kept apart here.

Experiments:
Tregs = conditions: in vivo; cited from earlier work
[1] = test system: spleen weights, germinal centers; conditions: po daily for 13 weeks, mice; cited from earlier work
[2] = cited from earlier work
[3] = test system: blood lymphocyte populations, neutrophils, RBCs, platelets; assay: Mouse CBC and flow cytometry 48 hours after oral acute dexamethasone; conditions: oral HED 3, 6, 9 or 12 mg/kg
Description: Treg lymphocytes were identified by being CD3+CD4+CD25+FoxP3+.
NK cells were identified by being CD3−CD49b+. B lymphocytes were identified by being CD3−B220+.

[4] = test system: blood lymphocyte populations, HSCs
Description: Each patients pre-treatment values are connected to post-treatment values by a connecting line. CD4+ cells are also CD3+. CD8+ cells are also CD3+.
Each patient's pre-treatment values are connected to post-treatment values by a connecting line. Tregs are identified by being CD3+CD4+CD25+FoxP3+. B lymphocytes are identified by being CD3-CD19+.
Each patient's pre-treatment values are connected to post-treatment values by a connecting line. NK cells are identified by being CD3-CD16/56+. HSCs are identified by being CD34+CD38-.
Blood was drawn before drug treatment and 48 hours post-treatment for CBC analysis and flow cytometry to determine lymphocyte and other blood cell populations. […] For one patient, pre-treatment CBCs were not drawn and thus normalized flow cytometry data is shown for only 3 patients.

[5] = test system: peripheral blood lymphocytes; assay: Repeat of Hinrichs dexamethasone dosing: peripheral blood lymphocytes by flow cytometry; type: in vivo; set-up: CD3+CD4+CD25+FoxP3+ Tregs reduction / CD3+ T lymphocytes reduction / CD3+CD4+ T lymphocytes reduction / CD3+CD8_T lymphocytes reduction: concentration or dose not given beside the values
Description: Prior studies into the use of steroids to precondition a patient prior to ACT had shown this approach to be ineffective. […] In contrast, Hinrichs discloses that pretreatment with radiation did enhance ACT tumor killing. […] However, while Hinrichs reported 99% lymphodepletion, no enhancement of ACT tumor killing was observed. In contrast, Hinrichs observed that radiation does enhance ACT tumor killing. […] In contrast, CD3+ T lymphocytes were reduced from […] live events, only a non-significant […] reduction. CD3+CD4+ T lymphocytes were reduced from 1779 to 902 live events, only a non-significant 50% reduction. CD3+CD8_T lymphocytes were reduced from 1318 to 1277 live events, only a non-significant 3% reduction. CD3+CD4+CD25+FoxP3+ Tregs were reduced from 198 to 70 live events, only a non-significant 65% reduction. And natural killer (NK) cells were reduced from 1153 to 958 live events, only a non-significant 17% reduction.

IL-2, IL-15, IL-6 = type: in vivo, human; conditions: oral 3 mg/kg dexamethasone base; 48 hours
Experimental: (FIG. 12, FIG. 13, FIG. 14 and FIG. 15 show data from the same four human patients.)
Blood was drawn before drug treatment and 48 hours post-treatment for CBC analysis and flow cytometry to determine lymphocyte and other blood cell populations. Serum was analyzed for cytokine levels. For one patient, pre-treatment CBCs were not drawn and thus normalized flow cytometry data is shown for only 3 patients.

[6] = cited from earlier work; remark: listed apart in the source
[7] = test system: blood lymphocytes, neutrophils, RBCs, platelets; assay: Rat complete blood counts 48 hours after acute dexamethasone; conditions: IV or PO 20, 40 or 80 mg/kg; for neutrophil number: all doses
[8] = test system: peripheral blood T and B cells, germinal centers and marginal zones, plasma IL-2 and IL-15; assay: Summary statements: acute dexamethasone doses needed for in vivo NTLA effects
Description: The effects of glucocorticoids are complex and depend on each specific glucocorticoid's affinity for the GR and mineralocorticoid receptor (MR). Additionally, there are now 9 known isoforms of the cytosolic GR and additional membrane expressed GR receptors that have been identified but which are not fully characterized. […] In general, at low doses typically used for chronic therapy, glucocorticoids have been reported to redistribute lymphocytes from the peripheral blood into the bone marrow, at medium doses glucocorticoids have been reported to cause leukocytosis thought to be a redistribution of leukocytes from the bone marrow, spleen and thymus into the peripheral blood, and at high doses glucocorticoids have a lymphotoxic action on lymphocytes by triggering apoptosis and necroptosis.

neutrophil function = conditions: cited from earlier work
MOPC315 cells [9] = assay: Immunocompetent mouse model of multiple myeloma: preconditioning before alloHSCT or NK cells; conditions: preconditioning before alloHSCT
Description: (§1) The mouse multiple myeloma MOPC315 cell line available from ATCC is tail vein inoculated to immunocompetent Balbc mice at 2×10^6 cells.
(§2) Balb/cJ (H-2d) and B10.D2 (H-2d) mice were purchased from Jackson Laboratory (Bar Harbor, Me., USA). Mice were used when they were between 10- to 14-wk-old. […] Red blood cells are lysed using sterile filtered RBC lysis buffer (eBioscience, San Diego, USA) and cells are washed, resuspended in phosphate buffered saline (PBS) containing 3% FBS, and filtered through a 70 mM nylon membrane. For CD8 T-cell depletion, the “Mouse CD8a positive selection kit” (Stem Cell, Grenoble, France) are used according to the manufacturer's EASYSEP depletion protocol. Finally, cells are suspended in 200 ml PBS for i.v. injection. Balbc mice are transplanted by i.v. tail vein injection of 1×10^7 bone marrow cells and 7×10^7 splenocytes from donor B10.D2 mice between 10 and 30 days after MOPC315 inoculation.
(§3) For allogeneic NK cell administration, fully functional NK cells are isolated from donor B10.D2 mice using commercially available kits such as the one from Miltenyi. Alternatively, mouse NK cells can be purchased from ATCC (KIL cells). The NK Cell Isolation Kit was developed for the isolation of untouched NK cells from single-cell suspensions of murine spleen. Non-NK cells, i.e. T cells, dendritic cells, B cells, granulocytes, macrophages, and erythroid cells are magnetically labeled by using a cocktail of biotin-conjugated antibodies and Anti-Biotin MicroBeads. Isolation of highly pure unlabeled NK cells is achieved by depletion of non-target cells. The kit has been optimized to give outstanding purities in C57BL/6J mice. 1×10^7 isolated NK cells are transplanted by IV tail vein injection between 10 and 30 days after MOPC315 inoculation.

[10] = test system: germinal centers in spleen; assay: Mouse spleen germinal centers by FITC-PNA immunofluorescence
[11] = test system: multiple myeloma and other cancer cell lines; assay: Direct tumor killing by acute dexamethasone; type: in vivo; conditions: about 1.6 mg/kg HED in a 48 hour period
Description: The desired in vivo effects of exemplary NTLAs would include reductions in germinal center and marginal zones in secondary lymphatics, direct tumor killing of some cancers particularly; multiple myeloma, renal cell carcinoma, leukemia and lymphoma, non-small cell lung cancer (NSCLC), prostate and breast cancer; depletion of all peripheral blood lymphocyte types, lack of lymphocyte redistribution to the BM or other organs, and elevation of plasma cytokines including IL-2, and/or IL-7, and/or IL-12, and/or IL-15 to levels preferably of 20 pg/ml or greater, among others.

MOPC315 cells [12] = conditions: mouse, in vivo
Description: as §1, §2, §3

RBC = conditions: doses of about 24 mg/50 kg; cited from earlier work
germinal centers = conditions: 1 to 4 weeks of daily dosing; up to about 10 mgs/kg/day; cited from earlier work
[13] = Hinrichs dosing, non-significant

Compound: methylprednisone
- effect on Tregs (Tregs): increases Tregs

Compound: C[C@]12C=CC(=O)C=C1CC[C@@H]1[C@@H]2C(=O)C[C@@]2(C)[C@H]1CC[C@]2(O)C(=O)CO [Prednisone]
- dose above which germinal centers are significantly impacted [1]: over 2.5 mg/kg
- dose above which spleen weights are significantly impacted [1]: over 2.5 mg/kg
- biologic half-life [2]: about 20 hours

Compound: C[C@@H]1C[C@H]2[C@@H]3CCC4=CC(=O)C=C[C@]4(C)[C@@]3(F)[C@@H](O)C[C@]2(C)[C@@]1(O)C(=O)CO [Dexamethasone, dexamethasone]
- RBCs [3]: spared
- neutrophils [3]: spared
- platelets [3]: spared
- B lymphocytes reduction compared to placebo ([3]; dose for the value not stated): 83%
- CD3+ T lymphocytes reduction compared to placebo ([3]; dose for the value not stated): 65%
- CD4+ T lymphocytes reduction compared to placebo ([3]; dose for the value not stated): 75%
- CD8+ T lymphocytes reduction compared to placebo ([3]; dose for the value not stated): 56%
- Tregs reduction compared to placebo ([3]; dose for the value not stated): 78%
- absolute lymphocyte count reduction compared to placebo ([3]; dose for the value not stated): 84%
- natural killer cells (NK) reduction compared to placebo ([3]; dose for the value not stated): 87%
- RBCs ([3]; listed as Dex): spares
- neutrophils ([3]; listed as Dex): sparing
- platelets ([3]; listed as Dex): spares
- patients showing lymphocytosis ([4]; 3 mg/kg HED): 50%
- hematopoietic stem cells (CD34+CD38-) ([4]; human, in vivo, po, 3 mg/kg): spared
- CD3+ T lymphocytes reduction [5, 13]: 33%
- CD3+CD4+ T lymphocytes reduction [5, 13]: 50%
- CD3+CD4+CD25+FoxP3+ Tregs reduction [5, 13]: 65%
- CD3+CD8_T lymphocytes reduction [5, 13]: 3%
- natural killer (NK) cells reduction [5, 13]: 17%
- CD3+CD4+CD25+FoxP3+ Tregs, live events ([5]; Hinrichs dosing, reduced from 198): 70 live events
- natural killer (NK) cells, live events ([5]; Hinrichs dosing, reduced from 1153): 958 live events
- CD3+CD8_T lymphocytes, live events ([5]; Hinrichs dosing, reduced from 1318): 1277 live events
- CD3+CD4+ T lymphocytes, live events ([5]; Hinrichs dosing, reduced from 1779): 902 live events
- CD3+ T lymphocytes, live events ([5]; intraperitoneal 10 mg/kg (HED 0.81 mg/kg) on day −6, −4, −2, reduced from 3370): 2441 live events
- B lymphocytes reduction vs vehicle control ([5]; intraperitoneal 10 mg/kg (HED 0.81 mg/kg) on day −6, −4, −2, significant): 65%
- B lymphocytes (CD3-CD19+ cells) in the peripheral blood, live events by flow cytometry ([5]; intraperitoneal 10 mg/kg (HED 0.81 mg/kg) on day −6, −4, −2, vehicle control 10680): 3733 live events
- patients with increased serum IL-2 and/or IL-15 levels (IL-2, IL-15, IL-6): 100%
- lowest lethal dose ([6]; healthy mice): 114 mg/kg HED
- lowest lethal dose ([6]; tumor bearing mice): 43 mg/kg HED
- Hct [7]: not affected
- HgB [7]: not affected
- RBCs [7]: not affected
- platelets [7]: not affected
- neutrophil number [7]: not reduced; also recorded: increased by all doses
- neutrophil number ([7]; listed as Dex): does not reduce
- acute oral dose necessary to reduce peripheral blood T and B cells ([8]; 48 hours after administration): ≥ 3 mg/kg
- return to baseline levels of peripheral blood T and B cells ([8]; acute oral doses of 3 mg/kg or greater): 5 to 14 days after dosing
- acute dose required for lymphodepletion ([8]; in vivo): > 3 mg/kg HED
- acute dose that reduces germinal centers and marginal zones in secondary lymphatics ([8]; in vivo): ≥ 6 mg/kg HED
- dose of dexamethasone base at which plasma IL-2 and IL-15 cytokine elevations are observed ([8]; in vivo): ≥ 3 mg/kg HED
- neutrophil function (neutrophil function): do not inhibit neutrophil function
- body weights after preconditioning (in words) (MOPC315 cells [9]): not reduced
- HED at which germinal centers are reduced in mice [10]: ≥ 3 mg/kg HED
- direct tumor killing [11]: about 50%
- toxicity compared to standard CyFlu preconditioning (MOPC315 cells [12]): much less toxicity
- toxicity compared to standard repeat CyFlu preconditioning (MOPC315 cells [12]): less toxicity

Compound: C[C@H]1C[C@H]2[C@@H]3CCC4=CC(=O)C=C[C@]4(C)[C@@]3(F)[C@@H](O)C[C@]2(C)[C@@]1(O)C(=O)CO [Betamethasone]
- effect on RBC (RBC): reduces RBC

Compound: C=CC[C@@H]1/C=C(\C)C[C@H](C)C[C@H](OC)[C@H]2O[C@@](O)(C(=O)C(=O)N3CCCC[C@H]3C(=O)O[C@H](/C(C)=C/[C@@H]3CC[C@@H](O)[C@H](OC)C3)[C@H](C)[C@@H](O)CC1=O)[C@H](C)C[C@@H]2OC [Tacrolimus]
- daily dosing required to reduce germinal centers (germinal centers): ≥ 0.48 mg/kg/day
- neutrophil function (neutrophil function): inhibits neutrophil function
